Experimental data taken from patent US20230000813A1, “COMPOUND FOR THE TREATMENT OF BOVINE OR SWINE RESPIRATORY DISEASE” (Intervet Inc., priority 2016, published 2023).
Values after ≈ are worked out from the molar mass of the structure shown.

Experiments:
Assay in all cases: MIC, broth-microdilution (CLSI VET01-A4)
Assay type in all cases: cell-based
[1] = tested on: Mannheimia haemolytica MH 13065 (XB0446-6003.9, BRD field isolate)
Outline: (§1)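 Broth microdilution per CLSI VET01-A4 using doubling dilution series of compound. MIC taken as the lowest concentration with no turbidity visible to the unaided eye, interpreted per CLSI VET01-S3.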

[2] = tested on: Mannheimia haemolytica MH 13093 (XB0472-6014.1, BRD field isolate)
Outline: as §1

[3] = tested on: Pasteurella multocida PM 12080 (IV102277-0093, BRD field isolate); conditions: Pasteurella multocida PM 12080; for MIC: read-out: MIC PM 12080
Outline: (§2)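 Visual no-turbidity endpoint over twofold compound dilutions in microdilution trays, interpreted according to CLSI VET01-S3.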

[4] = tested on: Pasteurella multocida PM 6391 (ATCC 43137, reference strain); conditions: Pasteurella multocida PM 6391; for MIC: read-out: MIC PM 6391
Outline: as §2

[5] = tested on: Mannheimia haemolytica MH 12587 (1071, BRD field isolate, macrolide-resistance: erm+, E+); conditions: Mannheimia haemolytica MH 12587, macrolide-resistant
Outline: as §2

[6] = tested on: Pasteurella multocida PM 10775 (080130003051, BRD field isolate); conditions: Pasteurella multocida PM 10775
Outline: as §2

[7] = tested on: Pasteurella multocida PM 6267 (P 2225 (L386), reference strain, mouse infection strain); conditions: Pasteurella multocida PM 6267; for MIC: read-out: MIC PM 6267
Outline: as §2

[8] = tested on: Mannheimia haemolytica MH 6374 (ATCC 33396, reference strain); conditions: Mannheimia haemolytica MH 6374; for MIC: read-out: MIC MH 6374
Outline: as §2

[9] = tested on: Mannheimia haemolytica MH 10720 (154, BRD field isolate); conditions: Mannheimia haemolytica MH 10720; for MIC: read-out: MIC MH 10720
Outline: as §2

[10] = tested on: Mannheimia haemolytica MH 6357 (M7/2, reference strain, cattle infection strain); conditions: Mannheimia haemolytica MH 6357; for MIC: read-out: MIC MH 6357
Outline: as §2

Compound	MIC [1] [µM]	MIC [2] [µM]	MIC PM 12080 [3]	MIC [4] [µM]	MIC MH 12587 [5] [µM]	MIC PM 10775 [6]	MIC PM 6267 [7]	MIC [8] [µM]	MIC MH 10720 [9]	MIC [10] [µM]	MIC [3] [µM]	MIC [7] [µM]	MIC [9] [µM]	MIC PM 6391 [4]	MIC MH 13065 [1]	MIC MH 6374 [8]	MIC MH 13093 [2]	MIC MH 6357 [10]
CSC(C)(C)[C@H](NC(=O)c1ccc(C#Cc2ccc(CNCc3cccs3)cc2)cc1)C(=O)NO [Compound 597]	0.8 (≈ 0.406 µg/mL)	0.8 (≈ 0.406 µg/mL)	<=0.1 μM	0.2 (≈ 0.102 µg/mL)	1.6 (≈ 0.812 µg/mL)	<=0.1 μM	<=0.1 μM	0.8 (≈ 0.406 µg/mL)	<=0.1 μM	0.8 (≈ 0.406 µg/mL)	–	–	–	–	–	–	–	–
CSC(C)(C)C(NC(=O)c1ccc(C#Cc2ccc(CNCc3ccccc3)cc2)cc1)C(=O)NO (stereo not drawn) [Compound 585]	0.8 (≈ 0.401 µg/mL)	0.8 (≈ 0.401 µg/mL)	–	0.4 (≈ 0.201 µg/mL)	1.6 (≈ 0.803 µg/mL)	<=0.1 μM	–	1.6 (≈ 0.803 µg/mL)	–	0.8 (≈ 0.401 µg/mL)	0.4 (≈ 0.201 µg/mL)	0.2 (≈ 0.1 µg/mL)	0.2 (≈ 0.1 µg/mL)	–	–	–	–	–
C[C@@H](O)[C@H](NC(=O)c1ccc(C#Cc2ccc(CN(C)Cc3ccccc3)o2)cc1)C(=O)NO [Compound 205]	0.8 (≈ 0.369 µg/mL)	1.6 (≈ 0.738 µg/mL)	–	0.4 (≈ 0.185 µg/mL)	1.6 (≈ 0.738 µg/mL)	<=0.1 μM	<=0.1 μM	0.8 (≈ 0.369 µg/mL)	<=0.1 μM	0.8 (≈ 0.369 µg/mL)	0.2 (≈ 0.0923 µg/mL)	–	–	–	–	–	–	–
CC(C)([C@H](NC(=O)c1ccc(C#Cc2ccc(CN3CCOCC3)cc2)cc1)C(=O)NO)S(C)(=O)=O [Compound 604]	0.8 (≈ 0.411 µg/mL)	1.6 (≈ 0.822 µg/mL)	<=0.1 μM	–	1.6 (≈ 0.822 µg/mL)	<=0.1 μM	<=0.1 μM	1.6 (≈ 0.822 µg/mL)	–	1.6 (≈ 0.822 µg/mL)	–	–	0.2 (≈ 0.103 µg/mL)	<=0.1 μM	–	–	–	–
CC(C)(O)C(NC(=O)c1ccc(C#Cc2ccc(CNCc3cccs3)cc2)cc1)C(=O)NO (stereo not drawn) [Compound 578]	–	0.2 (≈ 0.0955 µg/mL)	<=0.1 μM	–	0.4 (≈ 0.191 µg/mL)	<=0.1 μM	<=0.1 μM	–	<=0.1 μM	0.4 (≈ 0.191 µg/mL)	–	–	–	<=0.1 μM	<=0.1 μM	<=0.1 μM	–	–
CC(C)([C@@H](NC(=O)c1ccc(C#Cc2ccc(CNCc3nccs3)cc2)cc1)C(=O)NO)S(C)(=O)=O [C. 620]	0.2 (≈ 0.108 µg/mL)	0.2 (≈ 0.108 µg/mL)	<=0.1 μM	–	0.4 (≈ 0.216 µg/mL)	<=0.1 μM	<=0.1 μM	0.2 (≈ 0.108 µg/mL)	<=0.1 μM	0.2 (≈ 0.108 µg/mL)	–	–	–	<=0.1 μM	–	–	–	–
CC(C)C(NC(=O)c1ccc(C#Cc2ccc(CNCC#N)cc2)cc1)C(=O)NO (stereo not drawn) [Compound 346]	0.2 (≈ 0.0809 µg/mL)	0.4 (≈ 0.162 µg/mL)	<=0.1 μM	–	0.8 (≈ 0.324 µg/mL)	<=0.1 μM	<=0.1 μM	0.4 (≈ 0.162 µg/mL)	<=0.1 μM	0.4 (≈ 0.162 µg/mL)	–	–	–	–	–	–	–	–
C#CCNCc1ccc(C#Cc2ccc(C(=O)NC(C(=O)NO)C(C)(C)N)cc2)cc1 (racemic) [Compound 626]	0.4 (≈ 0.167 µg/mL)	0.8 (≈ 0.335 µg/mL)	<=0.1 μM	–	0.8 (≈ 0.335 µg/mL)	<=0.1 μM	<=0.1 μM	0.4 (≈ 0.167 µg/mL)	<=0.1 μM	0.8 (≈ 0.335 µg/mL)	–	–	–	–	–	–	–	–
CCCNCc1ccc(C#Cc2ccc(C(=O)N[C@H](C(=O)NO)[C@@H](C)O)cc2)s1 [Compound 404]	0.8 (≈ 0.332 µg/mL)	1.6 (≈ 0.665 µg/mL)	–	0.4 (≈ 0.166 µg/mL)	1.6 (≈ 0.665 µg/mL)	<=0.1 μM	–	1.6 (≈ 0.665 µg/mL)	–	1.6 (≈ 0.665 µg/mL)	0.8 (≈ 0.332 µg/mL)	0.4 (≈ 0.166 µg/mL)	–	–	–	–	–	–
Cc1ccc(CNCc2ccc(C#Cc3ccc(C(=O)N[C@H](C(=O)NO)[C@@H](C)O)cc3)s2)cc1 [Compound 411]	–	0.2 (≈ 0.0955 µg/mL)	<=0.1 μM	–	0.4 (≈ 0.191 µg/mL)	<=0.1 μM	<=0.1 μM	–	–	0.2 (≈ 0.0955 µg/mL)	–	–	–	<=0.1 μM	<=0.1 μM	<=0.1 μM	–	–
C[C@@H](O)[C@H](NC(=O)c1ccc(C#Cc2ccc(CNCc3ccncc3)s2)cc1)C(=O)NO [Compound 401]	0.4 (≈ 0.186 µg/mL)	0.8 (≈ 0.372 µg/mL)	–	0.2 (≈ 0.0929 µg/mL)	0.8 (≈ 0.372 µg/mL)	<=0.1 μM	<=0.1 μM	0.8 (≈ 0.372 µg/mL)	–	0.4 (≈ 0.186 µg/mL)	0.2 (≈ 0.0929 µg/mL)	–	–	–	–	–	–	–
C[C@@H](O)[C@H](NC(=O)c1ccc(C#Cc2ccc(CNCC#N)s2)cc1)C(=O)NO [Compound 406]	0.8 (≈ 0.33 µg/mL)	1.6 (≈ 0.66 µg/mL)	–	0.2 (≈ 0.0825 µg/mL)	1.6 (≈ 0.66 µg/mL)	<=0.1 μM	<=0.1 μM	1.6 (≈ 0.66 µg/mL)	–	1.6 (≈ 0.66 µg/mL)	0.4 (≈ 0.165 µg/mL)	–	–	–	–	–	–	–
C[C@@H](O)[C@H](NC(=O)c1ccc(C#Cc2ccc(CNCc3ccco3)nc2)cc1)C(=O)NO [Compound 424]	0.4 (≈ 0.179 µg/mL)	0.8 (≈ 0.359 µg/mL)	<=0.1 μM	–	1.6 (≈ 0.718 µg/mL)	<=0.1 μM	<=0.1 μM	1.6 (≈ 0.718 µg/mL)	–	0.8 (≈ 0.359 µg/mL)	–	–	–	<=0.1 μM	–	–	–	–
C[C@@H](O)[C@H](NC(=O)c1ccc(C#Cc2ccc(CNCC3CCCO3)s2)cc1)C(=O)NO (stereo partly drawn) [C. 412]	0.8 (≈ 0.366 µg/mL)	1.6 (≈ 0.732 µg/mL)	–	0.2 (≈ 0.0915 µg/mL)	1.6 (≈ 0.732 µg/mL)	<=0.1 μM	<=0.1 μM	0.8 (≈ 0.366 µg/mL)	–	0.8 (≈ 0.366 µg/mL)	0.4 (≈ 0.183 µg/mL)	–	–	–	–	–	–	–
C[C@@H](O)[C@H](NC(=O)c1ccc(C#Cc2ccc(CNCc3cccs3)s2)cc1)C(=O)NO [Compound 410]	–	–	<=0.1 μM	–	0.2 (≈ 0.0939 µg/mL)	<=0.1 μM	<=0.1 μM	–	–	–	–	–	–	<=0.1 μM	<=0.1 μM	<=0.1 μM	<=0.1 μM	<=0.1 μM
